PubChem BioAssay (NCI)
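Briefly, cells in 96-well plates were exposed to five compound concentrations for 48 h, and endpoints were estimated by linear interpolation. At the GI50, growth is halved. Definition used: TGI = concentration required for complete inhibition of growth.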

How the values were obtained:
Assay in all cases: NCI tumour cell line growth inhibition, 48 h
PC-3 prostate = test system: PC-3 prostate
SF-539 CNS = test system: SF-539 CNS
CAKI-1 renal = test system: CAKI-1 renal
TK-10 renal = test system: TK-10 renal
SK-MEL-5 melanoma = test system: SK-MEL-5 melanoma
MALME-3M melanoma = test system: MALME-3M melanoma
RPMI-8226 leukemia = test system: RPMI-8226 leukemia
A549 NSCLC = test system: A549 NSCLC
UACC-257 melanoma = test system: UACC-257 melanoma
SK-MEL-28 melanoma = test system: SK-MEL-28 melanoma
A498 renal = test system: A498 renal
HCT-15 colon = test system: HCT-15 colon
UO-31 renal = test system: UO-31 renal
EKVX NSCLC = test system: EKVX NSCLC
CCRF-CEM leukemia = test system: CCRF-CEM leukemia
OVCAR-8 ovarian = test system: OVCAR-8 ovarian
UACC-62 melanoma = test system: UACC-62 melanoma
KM12 colon = test system: KM12 colon
SN12C renal = test system: SN12C renal
NCI-H226 lung = test system: NCI-H226 lung
HS 578T breast = test system: HS 578T breast
MOLT-4 leukemia = test system: MOLT-4 leukemia
OVCAR-4 ovarian = test system: OVCAR-4 ovarian
OVCAR-5 ovarian = test system: OVCAR-5 ovarian
SNB-75 CNS = test system: SNB-75 CNS
RXF 393 renal = test system: RXF 393 renal
IGROV1 ovarian = test system: IGROV1 ovarian
K-562 leukemia = test system: K-562 leukemia
NCI-H522 lung = test system: NCI-H522 lung
786-0 renal = test system: 786-0 renal
M14 melanoma = test system: M14 melanoma
HCC-2998 colon = test system: HCC-2998 colon
SR leukemia = test system: SR leukemia
MCF7 breast = test system: MCF7 breast
SF-295 CNS = test system: SF-295 CNS
U251 CNS = test system: U251 CNS
OVCAR-3 ovarian = test system: OVCAR-3 ovarian
SK-MEL-2 melanoma = test system: SK-MEL-2 melanoma
SF-268 CNS = test system: SF-268 CNS
SW-620 colon = test system: SW-620 colon
LOX IMVI melanoma = test system: LOX IMVI melanoma
HL-60(TB) leukemia = test system: HL-60(TB) leukemia
DU-145 prostate = test system: DU-145 prostate
BT-549 breast = test system: BT-549 breast
ACHN renal = test system: ACHN renal
HT29 colon = test system: HT29 colon
MDA-MB-435 = test system: MDA-MB-435
NCI-H460 lung = test system: NCI-H460 lung
SK-OV-3 ovarian = test system: SK-OV-3 ovarian
NCI-H23 lung = test system: NCI-H23 lung
MDA-MB-231 breast = test system: MDA-MB-231 breast
HOP-62 NSCLC = test system: HOP-62 NSCLC
NCI/ADR-RES ovarian = test system: NCI/ADR-RES ovarian
SNB-19 CNS = test system: SNB-19 CNS
COLO 205 colon = test system: COLO 205 colon
HCT-116 colon = test system: HCT-116 colon
HOP-92 NSCLC = test system: HOP-92 NSCLC
T-47D breast = test system: T-47D breast

Cc1ccc2nc3ccccc3c(NCc3ccc(Cl)cc3)c2c1 was tested, and the GI50 (PC-3 prostate) was 2.19 µM, the TGI (PC-3 prostate) was 8.9 µM and the GI50 (SF-539 CNS) was 5.55 µM. For the same compound, the TGI (SF-539 CNS) was 12.1 µM, the GI50 (CAKI-1 renal) was 4.89 µM and the TGI (CAKI-1 renal) was 11 µM. For the same compound, the GI50 (TK-10 renal) was 8.94 µM, the TGI (TK-10 renal) was 16.7 µM and the GI50 (SK-MEL-5 melanoma) was 6 µM. The TGI (SK-MEL-5 melanoma) was 12.3 µM, the GI50 (MALME-3M melanoma) was 5.85 µM and the TGI (MALME-3M melanoma) was 12.5 µM. For the same compound, the GI50 (RPMI-8226 leukemia) was 1.44 µM, the TGI (RPMI-8226 leukemia) was 4.1 µM and the GI50 (A549 NSCLC) was 3.93 µM. It also gave a TGI (A549 NSCLC) of 12.7 µM, a GI50 (UACC-257 melanoma) of 8.57 µM and a TGI (UACC-257 melanoma) of 16.2 µM. It also gave a GI50 (SK-MEL-28 melanoma) of 6.42 µM, a TGI (SK-MEL-28 melanoma) of 13.1 µM and a GI50 (A498 renal) of 5.61 µM. For the same compound, the TGI (A498 renal) was 11.9 µM, the GI50 (HCT-15 colon) was 2.52 µM and the TGI (HCT-15 colon) was 8.73 µM. For the same compound, the GI50 (UO-31 renal) was 1.53 µM, the TGI (UO-31 renal) was 8.25 µM and the GI50 (EKVX NSCLC) was 6.45 µM. For the same compound, the TGI (EKVX NSCLC) was 13 µM, the GI50 (CCRF-CEM leukemia) was 2.02 µM and the TGI (CCRF-CEM leukemia) was 8.95 µM. For the same compound, the GI50 (OVCAR-8 ovarian) was 5.77 µM, the TGI (OVCAR-8 ovarian) was 16.6 µM and the GI50 (UACC-62 melanoma) was 6.89 µM. It also gave a TGI (UACC-62 melanoma) of 14 µM, a GI50 (KM12 colon) of 6.5 µM and a TGI (KM12 colon) of 13.5 µM. For the same compound, the GI50 (SN12C renal) was 5.09 µM, the TGI (SN12C renal) was 12 µM and the GI50 (NCI-H226 lung) was 6.77 µM. It also gave a TGI (NCI-H226 lung) of 17 µM, a GI50 (HS 578T breast) of 7.88 µM and a TGI (HS 578T breast) of 20.2 µM. It also gave a GI50 (MOLT-4 leukemia) of 1.59 µM, a TGI (MOLT-4 leukemia) of 5.5 µM and a GI50 (OVCAR-4 ovarian) of 5.13 µM. For the same compound, the TGI (OVCAR-4 ovarian) was 11.9 µM, the GI50 (OVCAR-5 ovarian) was 4.67 µM and the TGI (OVCAR-5 ovarian) was 11.1 µM. It also gave a GI50 (SNB-75 CNS) of 6.77 µM, a TGI (SNB-75 CNS) of 13.3 µM and a GI50 (RXF 393 renal) of 1.98 µM. For the same compound, the TGI (RXF 393 renal) was 8.08 µM, the GI50 (IGROV1 ovarian) was 2.95 µM and the TGI (IGROV1 ovarian) was 10.2 µM. The GI50 (K-562 leukemia) was 1.51 µM, the TGI (K-562 leukemia) was 5.28 µM and the GI50 (NCI-H522 lung) was 5.85 µM. The TGI (NCI-H522 lung) was 14.6 µM, the GI50 (786-0 renal) was 5.53 µM and the TGI (786-0 renal) was 12.1 µM. It also gave a GI50 (M14 melanoma) of 6.75 µM, a TGI (M14 melanoma) of 13.6 µM and a GI50 (HCC-2998 colon) of 1.02 µM. The TGI (HCC-2998 colon) was 2.02 µM, the GI50 (SR leukemia) was 1.48 µM and the TGI (SR leukemia) was 3.84 µM. For the same compound, the GI50 (MCF7 breast) was 1.94 µM, the TGI (MCF7 breast) was 8.82 µM and the GI50 (SF-295 CNS) was 5.65 µM. The TGI (SF-295 CNS) was 11.7 µM, the GI50 (U251 CNS) was 3.85 µM and the TGI (U251 CNS) was 11.6 µM. It also gave a GI50 (OVCAR-3 ovarian) of 6.31 µM, a TGI (OVCAR-3 ovarian) of 13 µM and a GI50 (SK-MEL-2 melanoma) of 8.57 µM. For the same compound, the TGI (SK-MEL-2 melanoma) was 17.3 µM, the GI50 (SF-268 CNS) was 6.91 µM and the TGI (SF-268 CNS) was 14.2 µM. For the same compound, the GI50 (SW-620 colon) was 2.83 µM, the TGI (SW-620 colon) was 9.42 µM and the GI50 (LOX IMVI melanoma) was 2.07 µM. For the same compound, the TGI (LOX IMVI melanoma) was 7.46 µM, the GI50 (HL-60(TB) leukemia) was 5.28 µM and the TGI (HL-60(TB) leukemia) was 13.5 µM. It also gave a GI50 (DU-145 prostate) of 5.44 µM, a TGI (DU-145 prostate) of 11.5 µM and a GI50 (BT-549 breast) of 6.38 µM. The TGI (BT-549 breast) was 13.3 µM, the GI50 (ACHN renal) was 5.44 µM and the TGI (ACHN renal) was 11.9 µM. The GI50 (HT29 colon) was 1.8 µM, the TGI (HT29 colon) was 7.73 µM and the GI50 (MDA-MB-435) was 6.49 µM. For the same compound, the TGI (MDA-MB-435) was 12.9 µM, the GI50 (NCI-H460 lung) was 4.02 µM and the TGI (NCI-H460 lung) was 11.1 µM. For the same compound, the GI50 (SK-OV-3 ovarian) was 7.7 µM, the TGI (SK-OV-3 ovarian) was 15.8 µM and the GI50 (NCI-H23 lung) was 5.55 µM. For the same compound, the TGI (NCI-H23 lung) was 12 µM, the GI50 (MDA-MB-231 breast) was 5.16 µM and the TGI (MDA-MB-231 breast) was 12.2 µM. For the same compound, the GI50 (HOP-62 NSCLC) was 6.89 µM, the TGI (HOP-62 NSCLC) was 16.3 µM and the GI50 (NCI/ADR-RES ovarian) was 4.72 µM. For the same compound, the TGI (NCI/ADR-RES ovarian) was 12.4 µM, the GI50 (SNB-19 CNS) was 6.21 µM and the TGI (SNB-19 CNS) was 12.7 µM. For the same compound, the GI50 (COLO 205 colon) was 1.27 µM, the TGI (COLO 205 colon) was 3.39 µM and the GI50 (HCT-116 colon) was 2.15 µM. It also gave a TGI (HCT-116 colon) of 8.27 µM, a GI50 (HOP-92 NSCLC) of 1.38 µM and a TGI (HOP-92 NSCLC) of 5.79 µM. For the same compound, the GI50 (T-47D breast) was 7.03 µM and the TGI (T-47D breast) was 19.5 µM.
